Activity calls are given as the source filed them. The calls are words filed in the database; no cut-off is given here.
Assays:
[1] = tested on: MCF7; assay: Antiproliferative activity against human MCF7 cells assessed as inhibition of cell growth incubated for 72 hrs by MTT assay; assay type: functional, cell-based; settings: MCF7, 72 h
[2] = tested on: A549; assay: Antiproliferative activity against human A549 cells assessed as inhibition of cell growth incubated for 72 hrs by MTT assay; assay type: functional, cell-based; settings: A549, 72 h
[3] = tested on: HeLa; assay: Antiproliferative activity against human HeLa cells assessed as inhibition of cell growth incubated for 72 hrs by MTT assay; assay type: functional, cell-based
[4] = Selectivity ratio of IC50 for antiproliferative activity against human A549 cells to IC50 for antiproliferative activity against human NCI-H1975 cells overexpressing EGFR L858R/T790M mutant; assay type: functional
[5] = tested on: HeLa; assay: Antiproliferative activity against paclitaxel-resistant human HeLa cells assessed as inhibition of cell growth incubated for 72 hrs by MTT assay; assay type: functional, cell-based
[6] = target: T1, Serine/threonine-protein kinase mTOR (Homo sapiens, UniProt P42345); assay: Inhibition of mTOR (unknown origin) at 1 uM by kinase-glo luminescent assay relative to control
[7] = tested on: NCI-H1975; assay: Antiproliferative activity against human NCI-H1975 cells overexpressing EGFR L858R/T790M mutant assessed as inhibition of cell growth incubated for 72 hrs by MTT assay; assay type: functional, cell-based; settings: NCI-H1975, 72 h
[8] = Selectivity ratio of IC50 for antiproliferative activity against human MCF7 cells to IC50 for antiproliferative activity against human U-87 MG cells; assay type: functional
[9] = target: T2, Phosphatidylinositol 4,5-bisphosphate 3-kinase catalytic subunit alpha isoform (Homo sapiens, UniProt P42336); assay: Inhibition of PI3Kalpha (unknown origin) at 1 uM by kinase-glo luminescent assay relative to control
[10] = Antiproliferative activity against human U-87 MG cells assessed as inhibition of cell growth incubated for 72 hrs by MTT assay; assay type: functional, cell-based, U-87MG ATCC
[11] = tested on: NCI-H460; assay: Antiproliferative activity against human NCI-H460 cells assessed as inhibition of cell growth incubated for 72 hrs by MTT assay; assay type: functional, cell-based; settings: NCI-H460, 72 h
[12] = Antiproliferative activity against human OVCAR-2 cells assessed as inhibition of cell growth incubated for 72 hrs by MTT assay; assay type: functional, cell-based; settings: OVCAR-2, 72 h
[13] = Selectivity ratio of IC50 for antiproliferative activity against human HeLa cells to IC50 for antiproliferative activity against paclitaxel-resistant human HeLa cells; assay type: functional
[14] = target: RAC-alpha serine/threonine-protein kinase (Homo sapiens) (UniProt P31749); assay: Inhibition of AKT1 (unknown origin) at 1 uM by kinase-glo luminescent assay relative to control
[15] = Cytotoxicity against human L02 cells assessed as inhibition of cell growth incubated for 72 hrs by MTT assay; assay type: toxicity, cell-based
[16] = target: Epidermal growth factor receptor (Homo sapiens) (UniProt P00533); assay: Inhibition of EGFR (unknown origin) at 1 uM by kinase-glo luminescent assay relative to control
[17] = target: Vascular endothelial growth factor receptor 2 (Homo sapiens) (UniProt P35968); assay: Inhibition of KDR (unknown origin) at 1 uM by kinase-glo luminescent assay relative to control
[18] = target: T2, Phosphatidylinositol 4,5-bisphosphate 3-kinase catalytic subunit alpha isoform; assay: Inhibition of PI3Kalpha in human MCF7 cells assessed as decrease in PI3Kalpha gene expression incubated for 24 hrs by fluorescence quantitative PCR assay; assay type: cell-based; settings: dose 0.8-1.6 µM
[19] = Hemolytic activity in 2% sheep RBC assessed as hemolysis at 16 to 256 ug/ml incubated for 3 hrs; assay type: toxicity, cell-based, Ovis aries; settings: erythrocyte, dose 16-256 µg/ml
[20] = tested on: NCI-H2228; assay: Antiproliferative activity against human NCI-H2228 cells assessed as inhibition of cell growth incubated for 72 hrs by MTT assay; assay type: functional, cell-based
[21] = target: T2, Phosphatidylinositol 4,5-bisphosphate 3-kinase catalytic subunit alpha isoform; assay: Inhibition of PI3Kalpha (unknown origin) by kinase-glo luminescent assay
[22] = species: Homo sapiens; assay: Selectivity index, ratio of IC50 for inhibition of PI3Kalpha (unknown origin) to IC50 for inhibition of mTOR (unknown origin) by kinase glo luminescent assay
[23] = target: T1, Serine/threonine-protein kinase mTOR; assay: Inhibition of mTOR (unknown origin) by kinase-glo luminescent assay
[24] = Homo sapiens, NCI-H2228, 72 h, read-out: IC50

Sequence of Vascular endothelial growth factor receptor 2 (Homo sapiens) (P35968 whole entry, canonical isoform): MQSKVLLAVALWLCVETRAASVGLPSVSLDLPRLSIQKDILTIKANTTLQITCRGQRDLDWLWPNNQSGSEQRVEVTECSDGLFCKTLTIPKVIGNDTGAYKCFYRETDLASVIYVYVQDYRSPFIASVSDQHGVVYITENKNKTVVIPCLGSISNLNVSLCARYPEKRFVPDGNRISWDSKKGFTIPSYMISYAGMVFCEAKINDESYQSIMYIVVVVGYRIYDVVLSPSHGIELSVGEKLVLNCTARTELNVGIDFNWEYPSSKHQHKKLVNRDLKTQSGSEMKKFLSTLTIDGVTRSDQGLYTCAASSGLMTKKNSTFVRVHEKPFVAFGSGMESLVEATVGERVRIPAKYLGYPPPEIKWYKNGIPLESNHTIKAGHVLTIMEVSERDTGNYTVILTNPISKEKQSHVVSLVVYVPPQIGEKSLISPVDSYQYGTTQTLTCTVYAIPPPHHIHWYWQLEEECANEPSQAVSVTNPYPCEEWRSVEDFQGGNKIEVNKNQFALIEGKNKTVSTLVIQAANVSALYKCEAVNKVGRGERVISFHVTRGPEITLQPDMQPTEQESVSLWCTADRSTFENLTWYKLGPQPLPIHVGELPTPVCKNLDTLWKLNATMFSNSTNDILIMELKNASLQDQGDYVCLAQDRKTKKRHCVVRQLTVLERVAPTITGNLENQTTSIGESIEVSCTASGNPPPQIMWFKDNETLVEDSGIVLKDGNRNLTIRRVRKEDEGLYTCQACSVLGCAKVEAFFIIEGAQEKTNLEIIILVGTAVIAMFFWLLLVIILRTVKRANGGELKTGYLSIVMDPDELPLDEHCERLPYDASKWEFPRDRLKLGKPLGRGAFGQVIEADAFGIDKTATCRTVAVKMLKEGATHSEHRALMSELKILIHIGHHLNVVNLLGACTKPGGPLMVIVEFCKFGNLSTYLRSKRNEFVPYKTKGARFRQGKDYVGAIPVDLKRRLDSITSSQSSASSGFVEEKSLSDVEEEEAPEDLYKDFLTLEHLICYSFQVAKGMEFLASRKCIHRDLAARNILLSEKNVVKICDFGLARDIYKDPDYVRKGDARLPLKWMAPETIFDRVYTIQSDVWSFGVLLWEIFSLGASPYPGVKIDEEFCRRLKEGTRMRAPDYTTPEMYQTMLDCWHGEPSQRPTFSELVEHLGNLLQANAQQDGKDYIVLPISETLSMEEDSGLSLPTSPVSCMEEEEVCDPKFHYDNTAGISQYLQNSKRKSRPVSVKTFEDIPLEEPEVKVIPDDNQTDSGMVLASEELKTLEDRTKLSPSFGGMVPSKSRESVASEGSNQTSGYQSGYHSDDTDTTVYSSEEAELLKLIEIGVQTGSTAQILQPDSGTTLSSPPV
Sequence of Epidermal growth factor receptor (Homo sapiens) (P00533 whole entry): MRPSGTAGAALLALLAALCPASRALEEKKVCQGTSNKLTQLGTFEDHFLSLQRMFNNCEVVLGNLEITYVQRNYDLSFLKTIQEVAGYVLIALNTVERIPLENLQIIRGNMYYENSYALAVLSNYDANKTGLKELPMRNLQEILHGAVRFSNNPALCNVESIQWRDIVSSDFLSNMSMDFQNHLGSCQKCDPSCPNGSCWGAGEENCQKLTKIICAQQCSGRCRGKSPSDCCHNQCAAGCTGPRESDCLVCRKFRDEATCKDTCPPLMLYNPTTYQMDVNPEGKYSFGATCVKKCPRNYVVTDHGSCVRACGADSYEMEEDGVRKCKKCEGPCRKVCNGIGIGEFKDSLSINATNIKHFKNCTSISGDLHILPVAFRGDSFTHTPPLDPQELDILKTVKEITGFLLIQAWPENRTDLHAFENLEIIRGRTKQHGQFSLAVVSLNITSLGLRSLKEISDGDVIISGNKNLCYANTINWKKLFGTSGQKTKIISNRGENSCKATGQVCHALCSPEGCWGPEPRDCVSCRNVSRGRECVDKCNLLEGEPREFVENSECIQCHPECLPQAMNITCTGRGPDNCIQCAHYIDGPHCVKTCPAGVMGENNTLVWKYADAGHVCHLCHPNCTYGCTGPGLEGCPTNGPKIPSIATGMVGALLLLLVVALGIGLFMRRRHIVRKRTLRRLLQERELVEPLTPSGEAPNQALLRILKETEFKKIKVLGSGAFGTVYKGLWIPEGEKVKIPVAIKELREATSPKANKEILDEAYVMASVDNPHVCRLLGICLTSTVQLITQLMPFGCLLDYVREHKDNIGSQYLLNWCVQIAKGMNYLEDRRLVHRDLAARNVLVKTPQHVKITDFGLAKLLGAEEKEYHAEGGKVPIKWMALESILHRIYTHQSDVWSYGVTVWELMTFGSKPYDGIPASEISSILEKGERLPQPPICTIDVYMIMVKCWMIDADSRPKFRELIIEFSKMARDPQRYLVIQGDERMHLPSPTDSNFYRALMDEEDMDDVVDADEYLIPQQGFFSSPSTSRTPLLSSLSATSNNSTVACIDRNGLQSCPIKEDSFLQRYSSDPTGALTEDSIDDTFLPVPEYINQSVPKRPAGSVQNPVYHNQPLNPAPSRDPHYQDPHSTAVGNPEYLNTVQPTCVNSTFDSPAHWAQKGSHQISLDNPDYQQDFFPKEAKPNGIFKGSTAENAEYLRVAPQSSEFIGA
T2 sequence (P42336 whole entry, canonical isoform): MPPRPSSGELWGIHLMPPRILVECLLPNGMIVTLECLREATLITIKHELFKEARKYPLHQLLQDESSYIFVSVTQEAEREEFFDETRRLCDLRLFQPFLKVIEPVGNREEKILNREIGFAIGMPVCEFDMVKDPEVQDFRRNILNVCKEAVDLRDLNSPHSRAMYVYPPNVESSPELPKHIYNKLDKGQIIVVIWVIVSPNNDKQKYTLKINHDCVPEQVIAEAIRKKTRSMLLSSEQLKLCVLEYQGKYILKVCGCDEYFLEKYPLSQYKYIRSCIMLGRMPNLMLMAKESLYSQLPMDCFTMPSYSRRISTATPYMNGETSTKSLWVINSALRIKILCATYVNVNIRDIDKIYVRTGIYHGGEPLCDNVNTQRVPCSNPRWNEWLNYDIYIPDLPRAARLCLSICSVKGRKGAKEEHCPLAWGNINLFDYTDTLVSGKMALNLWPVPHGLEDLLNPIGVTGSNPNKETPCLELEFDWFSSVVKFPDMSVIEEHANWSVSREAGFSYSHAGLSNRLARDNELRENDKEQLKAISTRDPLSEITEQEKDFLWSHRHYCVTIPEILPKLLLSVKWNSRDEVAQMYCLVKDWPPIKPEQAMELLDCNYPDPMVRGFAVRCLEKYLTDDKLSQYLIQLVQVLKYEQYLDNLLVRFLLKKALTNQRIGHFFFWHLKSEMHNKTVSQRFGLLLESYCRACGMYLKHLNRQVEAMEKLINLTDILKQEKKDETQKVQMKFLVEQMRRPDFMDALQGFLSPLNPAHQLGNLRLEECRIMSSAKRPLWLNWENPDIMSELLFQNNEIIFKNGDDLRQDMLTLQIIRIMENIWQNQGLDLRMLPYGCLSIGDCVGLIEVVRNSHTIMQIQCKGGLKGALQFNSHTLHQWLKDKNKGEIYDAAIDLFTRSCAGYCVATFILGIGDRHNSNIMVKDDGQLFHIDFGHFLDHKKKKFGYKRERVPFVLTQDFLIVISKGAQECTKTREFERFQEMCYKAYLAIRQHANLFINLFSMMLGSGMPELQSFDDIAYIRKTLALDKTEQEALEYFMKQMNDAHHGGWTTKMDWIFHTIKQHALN
Sequence of RAC-alpha serine/threonine-protein kinase (Homo sapiens) (P31749 whole entry): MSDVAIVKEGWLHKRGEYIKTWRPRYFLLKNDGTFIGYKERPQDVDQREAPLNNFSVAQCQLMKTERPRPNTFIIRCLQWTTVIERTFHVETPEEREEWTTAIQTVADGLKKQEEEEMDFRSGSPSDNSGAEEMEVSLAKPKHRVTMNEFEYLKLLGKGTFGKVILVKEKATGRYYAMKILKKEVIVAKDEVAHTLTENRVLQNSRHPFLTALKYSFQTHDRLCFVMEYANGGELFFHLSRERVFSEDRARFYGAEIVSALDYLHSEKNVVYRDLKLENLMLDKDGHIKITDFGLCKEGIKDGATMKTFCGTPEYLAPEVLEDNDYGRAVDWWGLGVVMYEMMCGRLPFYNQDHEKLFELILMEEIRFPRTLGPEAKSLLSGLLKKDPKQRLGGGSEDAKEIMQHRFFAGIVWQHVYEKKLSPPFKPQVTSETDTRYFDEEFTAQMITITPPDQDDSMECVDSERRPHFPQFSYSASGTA

IC50 [1] [µM]	IC50 [2] [µM]	IC50 [3] [µM]	IC50 [5] [µM]	inhibition [6] [%]	IC50 [7] [µM]	inhibition [9] [%]	IC50 [11] [µM]	IC50 [21] [µM]	SMILES	Ratio IC50 [4]	Ratio IC50 [8]	IC50 [10] [µM]	IC50 [12] [µM]	Ratio IC50 [13]	other results
30.7	44.9	28.2	> 100	86.8	5.53	43.4	> 100		CS(=O)(=O)N1CCN(Cc2ccc(-c3nc(-c4ccc(NC(=O)Nc5ccncn5)cc4)nc(N4CCOCC4)n3)s2)CC1	8.12	1.21	25.2	> 100		
1.8	3.62	4.3	0.23	91.1	5.27	87.2	11.5		CS(=O)(=O)N1CCN(Cc2ccc(-c3nc(-c4ccc(NC(=O)Nc5ccn[nH]5)cc4)nc(N4CCOCC4)n3)s2)CC1	0.69	0.2	8.96	2.12	18.7	inhibition [14]: 4.03%; IC50 at 72 h [15]: > 100 µM; inhibition [16]: 10.5%; inhibition [17]: 1.77%
0.3	0.47	1.04	0.37		0.008	88.2	2.31	0.177	CS(=O)(=O)N1CCN(Cc2ccc(-c3nc(-c4ccc(NC(=O)Nc5ccncc5)cc4)nc(N4CCOCC4)n3)s2)CC1			1.25	0.25		inhibition [14]: 18.2%; IC50 at 72 h [15]: > 100 µM; inhibition [16]: 6.24%; inhibition [18]: Dose-Dependent Effect; Activity [19]: Non-Toxic; inhibition [17]: 1.74%; IC50 [20, 24]: 0.22 µM
20.1	48.9	7.58	38.5		> 100	47.7	14.3	1.79	CS(=O)(=O)N1CCN(Cc2ccc(-c3nc(-c4ccc(NC(=O)Nc5ncc[nH]5)cc4)nc(N4CCOCC4)n3)s2)CC1			> 100	22.6		IC50 ([20]; nci-h2228): Not Active
> 100	53.9	13.8	> 100		7.86		> 100		Cn1ccnc1NC(=O)Nc1ccc(-c2nc(-c3ccc(CN4CCN(S(C)(=O)=O)CC4)s3)nc(N3CCOCC3)n2)cc1			> 100			
5.87	7.08	18.2	0.021	76.6	8.22	20.6	25.4	2.36	CS(=O)(=O)N1CCN(Cc2ccc(-c3nc(-c4ccc(NC(=O)Nc5cnccn5)cc4)nc(N4CCOCC4)n3)s2)CC1	0.86		> 100	15.8	912.5	Ratio IC50 [22]: 14.7; IC50 [20, 24]: 10.3 µM; IC50 [23]: 0.16 µM
0.42	16.4	45.1	31.7	72.7	9.87	47.5	10.6	1.33	Cn1nccc1NC(=O)Nc1ccc(-c2nc(-c3ccc(CN4CCN(S(C)(=O)=O)CC4)s3)nc(N3CCOCC3)n2)cc1	1.67	0.048	8.61	15.9	1.43	Ratio IC50 [22]: 2.33; IC50 [23]: 0.571 µM
7.61	10.8	15	28		6.78		> 100		CS(=O)(=O)N1CCN(Cc2ccc(-c3nc(-c4ccc(NC(=O)Nc5cncnc5)cc4)nc(N4CCOCC4)n3)s2)CC1	1.59	0.51	14.9	20.1	0.54	
15.2	2.82	48.5	> 100		> 100		> 100		CS(=O)(=O)N1CCN(Cc2ccc(-c3nc(-c4ccc(NC(=O)Nc5nn[nH]n5)cc4)nc(N4CCOCC4)n3)s2)CC1			> 100	> 100		
1.82	50.4	42.8	> 100		> 100	46.8	> 100	1.74	CS(=O)(=O)N1CCN(Cc2ccc(-c3nc(-c4ccc(NC(=O)Nn5cnnc5)cc4)nc(N4CCOCC4)n3)s2)CC1			> 100	26.9		
13	13.2	25.5	21.4	97.3	22.5	94.5	> 100		CS(=O)(=O)N1CCN(Cc2ccc(-c3nc(-c4ccc(NC(=O)Nc5nc[nH]n5)cc4)nc(N4CCOCC4)n3)s2)CC1	0.59	0.71	18.2	12.3	1.19	
0.11	14.2	2.14	10.5	96.4	31.2	93	20.5		CS(=O)(=O)N1CCN(Cc2ccc(-c3nc(-c4ccc(NC(=O)Nc5ccc6[nH]ncc6c5)cc4)nc(N4CCOCC4)n3)s2)CC1	0.46	0.007	15.1	12.6	0.2	
7.46	2.38	17.1	17.2	17.1	40.5	9	> 100	8.97	CS(=O)(=O)N1CCN(Cc2ccc(-c3nc(-c4ccc(NC(=O)NC5CN6CCC5CC6)cc4)nc(N4CCOCC4)n3)s2)CC1 (stereo not drawn)	0.059	0.35	21.5	22.9	0.99	Ratio IC50 [22]: 1.13; IC50 [23]: 7.96 µM
1.2	1.03	3.15	2.97	90.6	2.42	97.8	2.68		CS(=O)(=O)N1CCN(Cc2cc3nc(-c4cccc5[nH]ncc45)nc(N4CCOCC4)c3s2)CC1 [PICTILISIB]			3.13	1.25		inhibition [14]: inactive; inhibition [16]: inactive; inhibition [17]: inactive; IC50 [20, 24]: 1.07 µM
9.11	20.5	31.2	22.6		0.11		> 100		CS(=O)(=O)N1CCN(Cc2ccc(-c3nc(-c4ccc(NC(=O)NN5CCOCC5)cc4)nc(N4CCOCC4)n3)s2)CC1	186.72	0.34	26.9	15.9	1.38	
3.34	10.1	6.01	9.27		0.076	16.1	7.57	3	CS(=O)(=O)N1CCN(Cc2ccc(-c3nc(-c4ccc(NC(=O)Nc5ccccn5)cc4)nc(N4CCOCC4)n3)s2)CC1			10.5	3.52		
1.05	0.11	2.36	2.07		0.16	80.1	3.21	0.299	Cn1ccc(NC(=O)Nc2ccc(-c3nc(-c4ccc(CN5CCN(S(C)(=O)=O)CC5)s4)nc(N4CCOCC4)n3)cc2)n1			0.24	1.06		inhibition [14]: 1.02%; IC50 at 72 h [15]: > 100 µM; inhibition [16]: inactive; inhibition [17]: inactive
12.5	13.1	15.2	12.6	93	12.7	91.3	17.9		CS(=O)(=O)N1CCN(Cc2ccc(-c3nc(-c4ccc(NC(=O)Nc5ncccn5)cc4)nc(N4CCOCC4)n3)s2)CC1	1.03		> 100	> 100	1.21	

From ChEMBL document CHEMBL5236659, “Design, synthesis and antitumor activity of novel thiophene- triazine derivatives bearing arylurea unit as potent PI3K/mTOR inhibitorss” (Bioorg Med Chem, 2023)
